The source of these data is the supplement of paper PMC10307832.

Holding throughout (test): relative viability (nuclei count vs DMSO), 5 days (fraction); higher = more cells survive
Compound in assay [1]: CC1CC(=O)N(C2=CN=C(N=C2N1C3CCCC3)NC4=C(C=C(C=C4)C(=O)NC5CCN(CC5)C)OC)C [NPK76-II-72-1] + CCNC(=O)c1noc(-c2cc(C(C)C)c(O)cc2O)c1-c1ccc(CN2CCOCC2)cc1 [Luminespib] (partner 0.01 µM)
Summed up: (§1)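 After 5 days of treatment, lung cancer cells in 1536-well plates were fixed and stained in a single step (final 0.05% Triton X-100, 1% formaldehyde, 1 ug/ml Hoechst) and their nuclei counted on 4× images. Treatment had been applied by pin tool the day after seeding as one drug alone or as a fixed anchor-drug dose with five library-drug doses (not always all listed) in √10 steps. Relative viability is the nuclei count of treated wells divided by that of vehicle wells, and values are medians of duplicate plates.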

Compound in assay [2]: CC[C@@H]1C(=O)N(C)c2cnc(Nc3ccc(C(=O)NC4CCN(C)CC4)cc3OC)nc2N1C1CCCC1 [BI-2536] + CC(=O)Nc1cccc(-n2c(=O)n(C3CC3)c(=O)c3c(Nc4ccc(I)cc4F)n(C)c(=O)c(C)c32)c1 [Trametinib] (partner 0.02 µM)
The method, boiled down:
as §1

Compound in assay [3]: CC[C@@H]1C(=O)N(C)c2cnc(Nc3ccc(C(=O)NC4CCN(C)CC4)cc3OC)nc2N1C1CCCC1 [BI-2536] + C[C@]1(O)C[C@@H](c2nc(-c3ccc4ccc(-c5ccccc5)nc4c3)c3c(N)nccn32)C1 [Linsitinib] (partner 1 µM)
The method, boiled down: as §1

Compound in assay [4]: CC[C@@H]1C(=O)N(C)c2cnc(Nc3ccc(C(=O)NC4CCN(C)CC4)cc3OC)nc2N1C1CCCC1 [BI-2536] + Nc1ncn([C@H]2C[C@H](O)[C@@H](CO)O2)c(=O)n1 [Decitabine] (partner 2 µM)
Summed up:
as §1

Turning to NCI-H2023, the relative viability was determined as 0.766 in assay [1] (first compound 0.01 µM); 1.03 in assay [1] (first compound 0.03162 µM); 0.871 in assay [1] (first compound 0.1 µM); 0.594 in assay [1] (first compound 0.3162 µM); 0.888 in assay [1] (first compound 1 µM); 0.53 in assay [2] (first compound 0.01 µM). The relative viability in assay [2] (first compound 0.03162 µM) came to 0.528; in assay [2] (first compound 0.1 µM), 0.25; in assay [2] (first compound 0.3162 µM) it was 0.113; in assay [2] (first compound 1 µM), 0.102; in assay [3] (first compound 0.01 µM), 0.67; in assay [3] (first compound 0.03162 µM), 0.667. For the same cell line, the relative viability in assay [3] (first compound 0.1 µM) came out at 0.606; in assay [3] (first compound 0.3162 µM), 0.0984; in assay [3] (first compound 1 µM), 0.109; in assay [4] (first compound 0.01 µM), 0.186; in assay [4] (first compound 0.03162 µM), 0.191; in assay [4] (first compound 0.1 µM), 0.112. Also, the relative viability in assay [4] (first compound 0.3162 µM) is 0.091; in assay [4] (first compound 1 µM) it was 0.084.
As for NCI-H2085, the relative viability in assay [1] (first compound 0.01 µM) was found to be 0.442; in assay [1] (first compound 0.03162 µM), 0.437; in assay [1] (first compound 0.1 µM), 0.391; in assay [1] (first compound 0.3162 µM), 0.381; in assay [1] (first compound 1 µM), 0.437; in assay [2] (first compound 0.01 µM) it was 0.523. The relative viability in assay [2] (first compound 0.03162 µM) was 0.52; in assay [2] (first compound 0.1 µM) it was 0.439; in assay [2] (first compound 0.3162 µM), 0.144; in assay [2] (first compound 1 µM), 0.177; in assay [3] (first compound 0.01 µM), 0.958; in assay [3] (first compound 0.03162 µM) it was 0.919. Moreover, the relative viability in assay [3] (first compound 0.1 µM) is 0.831; in assay [3] (first compound 0.3162 µM), 0.267; in assay [3] (first compound 1 µM), 0.329; in assay [4] (first compound 0.01 µM), 0.629; in assay [4] (first compound 0.03162 µM), 0.484; in assay [4] (first compound 0.1 µM) it was 0.484. Further, the relative viability in assay [4] (first compound 0.3162 µM) is 0.301; in assay [4] (first compound 1 µM), 0.303.
In the case of NCI-H2087, the relative viability in assay [1] (first compound 0.01 µM) stood at 0.154; in assay [1] (first compound 0.03162 µM), 0.16; in assay [1] (first compound 0.1 µM) it was 0.136; in assay [1] (first compound 0.3162 µM) it was 0.158; in assay [1] (first compound 1 µM) it was 0.185; in assay [2] (first compound 0.01 µM), 0.18. Besides, the relative viability was 0.183 in assay [2] (first compound 0.03162 µM); 0.147 in assay [2] (first compound 0.1 µM); 0.0838 in assay [2] (first compound 0.3162 µM); 0.0815 in assay [2] (first compound 1 µM); 0.83 in assay [3] (first compound 0.01 µM); 1.06 in assay [3] (first compound 0.03162 µM). Further, the relative viability was found to be 0.927 in assay [3] (first compound 0.1 µM); 0.197 in assay [3] (first compound 0.3162 µM); 0.163 in assay [3] (first compound 1 µM); 0.273 in assay [4] (first compound 0.01 µM); 0.247 in assay [4] (first compound 0.03162 µM); 0.149 in assay [4] (first compound 0.1 µM). The values for the relative viability in assay [4] (first compound 0.3162 µM) and in assay [4] (first compound 1 µM) were 0.0727 and 0.0981, respectively.
In the case of NCI-H2126, the relative viability is 0.88 in assay [1] (first compound 0.01 µM); 0.907 in assay [1] (first compound 0.03162 µM); 0.933 in assay [1] (first compound 0.1 µM); 0.814 in assay [1] (first compound 0.3162 µM); 0.901 in assay [1] (first compound 1 µM); 0.622 in assay [2] (first compound 0.01 µM). For the same cell line, the relative viability in assay [2] (first compound 0.03162 µM) came out at 0.597; in assay [2] (first compound 0.1 µM) it was 0.517; in assay [2] (first compound 0.3162 µM), 0.234; in assay [2] (first compound 1 µM) it was 0.228; in assay [3] (first compound 0.01 µM), 0.751; in assay [3] (first compound 0.03162 µM), 0.759. Moreover, the relative viability in assay [3] (first compound 0.1 µM) amounted to 0.721; in assay [3] (first compound 0.3162 µM) it was 0.46; in assay [3] (first compound 1 µM), 0.268; in assay [4] (first compound 0.01 µM) it was 0.547; in assay [4] (first compound 0.03162 µM) it was 0.591; in assay [4] (first compound 0.1 µM) it was 0.492. Further, the relative viability turned out to be 0.247 in assay [4] (first compound 0.3162 µM) and 0.244 in assay [4] (first compound 1 µM).
In the case of NCI-H2347, the relative viability is 0.529 in assay [1] (first compound 0.01 µM); 0.593 in assay [1] (first compound 0.03162 µM); 0.459 in assay [1] (first compound 0.1 µM); 0.526 in assay [1] (first compound 0.3162 µM); 0.437 in assay [1] (first compound 1 µM); 0.261 in assay [2] (first compound 0.01 µM). In addition, the relative viability in assay [2] (first compound 0.03162 µM) is 0.302; in assay [2] (first compound 0.1 µM), 0.282; in assay [2] (first compound 0.3162 µM), 0.264; in assay [2] (first compound 1 µM), 0.238; in assay [3] (first compound 0.01 µM), 0.947; in assay [3] (first compound 0.03162 µM), 0.929. The relative viability turned out to be 0.967 in assay [3] (first compound 0.1 µM); 0.617 in assay [3] (first compound 0.3162 µM); 0.549 in assay [3] (first compound 1 µM); 0.595 in assay [4] (first compound 0.01 µM); 0.736 in assay [4] (first compound 0.03162 µM); 0.589 in assay [4] (first compound 0.1 µM). Moreover, the relative viability in assay [4] (first compound 0.3162 µM) is 0.506; in assay [4] (first compound 1 µM), 0.414.
For NCI-H2405, the relative viability in assay [1] (first compound 0.01 µM) was 0.625; in assay [1] (first compound 0.03162 µM) it was 0.688; in assay [1] (first compound 0.1 µM), 0.773; in assay [1] (first compound 0.3162 µM), 0.771; in assay [1] (first compound 1 µM) it was 0.93; in assay [2] (first compound 0.01 µM) it was 0.607. Also, the relative viability turned out to be 0.549 in assay [2] (first compound 0.03162 µM); 0.441 in assay [2] (first compound 0.1 µM); 0.277 in assay [2] (first compound 0.3162 µM); 0.357 in assay [2] (first compound 1 µM); 0.903 in assay [3] (first compound 0.01 µM); 0.855 in assay [3] (first compound 0.03162 µM). Also, the relative viability in assay [3] (first compound 0.1 µM) came out at 0.745; in assay [3] (first compound 0.3162 µM), 0.225; in assay [3] (first compound 1 µM), 0.468; in assay [4] (first compound 0.01 µM), 0.721; in assay [4] (first compound 0.03162 µM), 0.662; in assay [4] (first compound 0.1 µM), 0.387. The values for the relative viability in assay [4] (first compound 0.3162 µM) and in assay [4] (first compound 1 µM) were 0.307 and 0.392, respectively.
